{"source": "paper doi:10.1101/2020.04.06.027102v2", "about": "(biorxiv, 2020)", "assay_in_all_cases": "UV-visible dark absorbance spectrum of purified reconstituted rhodopsin", "assay_type_in_all_cases": "binding", "key": {"[1]": {"molecular_target": "T1, Eumaeus atala LWRh (LW opsin) (Eumaeus atala, UniProt A0A7T3U8W4)", "T1 sequence (A0A7T3U8W4 1-381)": "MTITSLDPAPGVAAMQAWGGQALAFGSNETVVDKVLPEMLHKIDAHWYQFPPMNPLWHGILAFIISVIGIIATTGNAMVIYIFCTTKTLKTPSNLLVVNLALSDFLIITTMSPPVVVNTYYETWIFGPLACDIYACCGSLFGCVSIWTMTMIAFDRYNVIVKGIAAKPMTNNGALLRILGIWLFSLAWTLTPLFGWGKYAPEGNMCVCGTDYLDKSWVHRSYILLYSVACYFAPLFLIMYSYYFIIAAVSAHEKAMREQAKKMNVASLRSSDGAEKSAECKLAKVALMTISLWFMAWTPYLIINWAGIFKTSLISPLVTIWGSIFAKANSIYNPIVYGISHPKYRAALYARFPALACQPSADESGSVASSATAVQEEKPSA", "settings": "covalent, 40 uM 11-cis-retinal, figure legend prints 567 nm"}, "[2]": {"molecular_target": "T2, Eumaeus atala UVRh (Eumaeus atala, UniProt A0A7T3U8H7)", "T2 sequence (A0A7T3U8H7 1-406)": "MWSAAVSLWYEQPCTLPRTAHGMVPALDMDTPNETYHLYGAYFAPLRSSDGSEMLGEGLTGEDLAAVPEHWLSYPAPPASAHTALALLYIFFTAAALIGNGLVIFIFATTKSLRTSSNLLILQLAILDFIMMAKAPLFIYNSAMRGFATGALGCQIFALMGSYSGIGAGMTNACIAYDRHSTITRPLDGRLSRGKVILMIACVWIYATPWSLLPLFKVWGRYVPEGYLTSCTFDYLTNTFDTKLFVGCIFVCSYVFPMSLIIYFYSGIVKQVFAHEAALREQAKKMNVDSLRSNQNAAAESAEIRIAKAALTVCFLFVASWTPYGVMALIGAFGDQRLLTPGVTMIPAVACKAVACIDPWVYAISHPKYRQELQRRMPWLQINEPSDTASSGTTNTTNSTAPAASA", "settings": "covalent, 40 uM 11-cis-retinal"}, "[3]": {"molecular_target": "T3, Eat-BRh1 (BRh1, Eat-B1) (Eumaeus atala, UniProt A0A7T3U8I9)", "T3 sequence (A0A7T3U8I9 1-380)": "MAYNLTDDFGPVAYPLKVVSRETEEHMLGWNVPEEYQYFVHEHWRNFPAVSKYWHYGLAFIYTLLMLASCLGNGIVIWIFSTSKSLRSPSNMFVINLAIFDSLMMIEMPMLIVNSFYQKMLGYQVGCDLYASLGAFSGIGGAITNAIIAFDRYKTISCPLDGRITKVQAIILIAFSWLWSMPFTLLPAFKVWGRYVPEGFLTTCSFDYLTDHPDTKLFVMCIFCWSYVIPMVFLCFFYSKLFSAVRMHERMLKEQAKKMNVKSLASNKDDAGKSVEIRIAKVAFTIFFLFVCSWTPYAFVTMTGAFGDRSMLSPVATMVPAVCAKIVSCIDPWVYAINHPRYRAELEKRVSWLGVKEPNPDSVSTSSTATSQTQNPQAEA", "settings": "covalent, 40 uM 11-cis-retinal"}, "[4]": {"molecular_target": "T4, Eat-BRh2 (BRh2, Eat-B2) (Eumaeus atala, UniProt A0A7T3U8M8)", "T4 sequence (A0A7T3U8M8 1-380)": "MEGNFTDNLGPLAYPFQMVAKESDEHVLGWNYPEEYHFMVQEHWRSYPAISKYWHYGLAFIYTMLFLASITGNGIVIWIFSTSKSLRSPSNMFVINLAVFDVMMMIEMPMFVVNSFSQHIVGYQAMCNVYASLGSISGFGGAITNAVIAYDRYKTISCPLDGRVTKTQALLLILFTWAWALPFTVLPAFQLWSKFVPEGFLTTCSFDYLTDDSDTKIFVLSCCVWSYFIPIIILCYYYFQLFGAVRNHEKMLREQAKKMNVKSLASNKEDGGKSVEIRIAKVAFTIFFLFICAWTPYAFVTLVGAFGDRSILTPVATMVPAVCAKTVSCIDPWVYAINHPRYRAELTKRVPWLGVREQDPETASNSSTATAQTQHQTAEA", "settings": "covalent, 40 uM 11-cis-retinal"}}}
{"smiles": "CC1=C(/C=C/C(C)=C/C=C\\C(C)=C\\C=O)C(C)(C)CCC1", "note": "[11-cis-retinal]", "values": [{"measurement": "λmax", "setting": "[1]", "value": "569 ± 2", "unit": "nm"}, {"measurement": "λmax", "setting": "[2]", "value": "352 ± 3.5", "unit": "nm"}, {"measurement": "λmax", "setting": "[3]", "value": "435 ± 2", "unit": "nm"}, {"measurement": "λmax", "setting": "[4]", "value": "500 ± 2", "unit": "nm"}]}
